Test results: article PMC10867575, “Functional validation of novel levamisole resistance marker S168T in Haemonchus contortus” (International Journal for Parasitology: Drugs and Drug …, 2024)
Like-named read-outs stand apart in the source and are kept apart here.

System: T1, Hco-L-AChR-1.1 (UNC-29.1/UNC-38/UNC-63/ACR-8)
T1 construct: cRNAs co-injected in Xenopus laevis oocytes with H. contortus ancillary ric-3.1, unc-50, unc-74; wild-type clones from earlier studies; S168T acr-8 cloned from isolate MHco18 (UGA2004), vector pTB207
Experiment: two-electrode voltage clamp, Xenopus oocytes
Format: cell-based, Haemonchus contortus
Details: agonist, 100 mM NaCl, 2.5 mM KCl, 1 mM CaCl2, 5 mM HEPES, pH 7.3, currents normalised to 100 μM ACh
Excerpt: two-electrode voltage clamp, Xenopus oocytes on Hco-L-AChR-1.1 (UNC-29.1/UNC-38/UNC-63/ACR-8)

Row | SMILES | EC50 (read-out: ACh EC50) | EC50 (read-out: LEV EC50)
1 | CC(=O)OCC[N+](C)(C)C [ACh, acetylcholine] | 4.2 ± 1.1 µM | 
2 | c1ccc([C@H]2CN3CCSC3=N2)cc1 [LEV, levamisole] |  | 3.2 ± 1.1 µM
